Assay [1] has as its target T1, recombinant RORγ Ligand Binding Domain (LBD) protein (Homo sapiens, UniProt P51449).
T1 construct: 6×His; GST
T1 sequence (P51449 269-508 limits assumed): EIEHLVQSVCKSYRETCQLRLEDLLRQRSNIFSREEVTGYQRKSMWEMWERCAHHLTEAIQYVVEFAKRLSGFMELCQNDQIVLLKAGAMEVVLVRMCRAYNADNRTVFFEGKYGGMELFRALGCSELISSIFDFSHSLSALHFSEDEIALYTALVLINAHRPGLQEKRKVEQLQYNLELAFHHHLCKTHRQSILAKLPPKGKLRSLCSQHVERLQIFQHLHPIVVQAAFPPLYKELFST
Kind of assay: Radio-Ligand RORγ Binding Assay (Assay 1). The note with it: cell-free competition with 25-hydroxy[26,27-3H]-cholesterol; read-out: RORγ Binding Ki Range* (nM) (Assay 1). How it is done: Radio-Ligand RORγ Binding Assay (Assay 1)
The plate was shaken at 700 rpm for 20 min and incubated for 10 min at rt, after which 40 μL of poly-Lys YSi SPA beads (PerkinElmer, Cat. # RPNQ0010) were added to achieve 50 μg of the beads per well. The plate was incubated on an orbital shaker for 20 min and then for 10 min without agitation at rt. SPA signal for tritium beta radiation was registered on PerkinElmer Microbeta plate reader.

Assay [2] concerns the target T2, full-length RORγt in Jurkat cells (Homo sapiens, UniProt P51449).
T2 sequence (P51449 1-497 isoform P51449-2): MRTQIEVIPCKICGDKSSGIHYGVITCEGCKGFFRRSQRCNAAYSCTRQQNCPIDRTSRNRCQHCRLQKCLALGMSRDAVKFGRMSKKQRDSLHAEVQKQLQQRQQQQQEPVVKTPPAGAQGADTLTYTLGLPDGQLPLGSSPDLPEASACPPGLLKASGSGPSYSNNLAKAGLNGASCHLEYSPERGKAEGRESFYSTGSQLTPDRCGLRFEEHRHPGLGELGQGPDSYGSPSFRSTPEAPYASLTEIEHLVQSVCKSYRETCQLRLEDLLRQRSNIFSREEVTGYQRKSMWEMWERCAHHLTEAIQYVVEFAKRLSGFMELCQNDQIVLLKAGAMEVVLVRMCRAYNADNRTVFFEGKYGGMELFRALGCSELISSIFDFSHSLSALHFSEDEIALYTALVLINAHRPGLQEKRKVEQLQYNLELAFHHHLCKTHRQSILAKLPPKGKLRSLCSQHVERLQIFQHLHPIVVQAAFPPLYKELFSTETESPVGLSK
Procedure: ROR ? t 5×RORE Assay in Jurkat Cells (Assay 2)
Compounds of the present invention were tested for RORγ inverse agonist activity in a cell-based, transcriptional activity assay. […] Luciferase activity in the conditioned supernatants was determined with NanoGlo® assay reagents (Promega, Cat.# N1130).

Structures are written as SMILES.

For 18 compounds, Ki and IC50 results are on record in US9481674B1, “Dihydropyrrolopyridine inhibitors of ROR-gamma” (Vitae Pharmaceuticals, Inc., priority 2016, dated 2016).

As usually defined, the Ki is a measure of affinity in units of concentration, obtained from inhibition or displacement. One may read the IC50 as the concentration that gives 50% inhibition. A higher IC50 goes with a need for much substance.

Regarding `CC[C@H]1c2ncc(C(=O)N[C@@H](CO)c3ccc(S(=O)(=O)CC)cc3)cc2CN1C[C@@H]1CC[C@@H](C(F)(F)F)OC1` (single isomer, unassigned) [Compound 11], the inhibitory constant (Ki) in assay [1] is less than 100 nM.
Same read-out and setting: the value for `CCS(=O)(=O)c1ccc([C@H](CO)NC(=O)c2cnc3c(c2)CN(C[C@H]2CC[C@H](C(F)(F)F)CO2)[C@H]3C(C)C)cc1` (single isomer, unassigned) [Compound 15] was less than 100 nM; that for `CCS(=O)(=O)c1ccc([C@H](CO)NC(=O)c2cnc3c(c2)CN(C[C@@H]2CC[C@H](C(F)(F)F)CO2)[C@H]3C(C)C)cc1` (single isomer, unassigned) [Compound 18] was less than 100 nM.
Same read-out and setting: the value for `CCS(=O)(=O)c1ccc([C@H](CO)NC(=O)c2cnc3c(c2)CN(C[C@H]2CC[C@@H](C(F)(F)F)CO2)[C@H]3C(C)C)cc1` (single isomer, unassigned) [Compound 21] was less than 100 nM.
For `CCS(=O)(=O)c1ccc(C(C)(CO)NC(=O)c2cnc3c(c2)CN(C[C@H]2CC[C@H](C(F)(F)F)CC2)[C@H]3C(C)C)cc1` (stereo partly shown) [Compound 7], in assay [1], the Ki is less than 100 nM. The compound also returned an IC50 in assay [2] of 0.1 to 1 µM.
Turning to `CC(C)[C@H]1c2ncc(C(=O)N[C@@H](CO)c3ccc(S(C)(=O)=O)cc3)cc2CN1C[C@H]1CC[C@@H](C(F)(F)F)CC1` [Compound 8], in assay [1], the Ki was less than 100 nM. This compound also gave an IC50 in assay [2] greater than 1 µM.
In the case of `CCS(=O)(=O)c1ccc(C(C)(CO)NC(=O)c2cnc3c(c2)CN(C[C@H]2CC[C@H](C(F)(F)F)CC2)[C@@H]3C(C)C)cc1` (stereo partly shown) [Compound 9], the Ki in assay [1] was 100 to 1000 nM.
As for `CCS(=O)(=O)c1ccc([C@H](CO)NC(=O)c2cnc3c(c2)CN(CC(F)(F)F)[C@@H]3Cc2ccccc2)cc1` [Compound 19], the Ki in assay [1] was less than 100 nM. Moreover, the IC50 in assay [2] lay within 0.1 to 1 µM.
As to `CCS(=O)(=O)c1ccc([C@H](CO)NC(=O)c2cnc3c(c2)CN(CC(F)(F)F)[C@H]3Cc2ccccc2)cc1` [Compound 22], in assay [1], the inhibition constant (Ki) is less than 100 nM. The same compound showed a 50% inhibitory concentration (IC50) in assay [2] of less than 0.1 µM.
For `CCS(=O)(=O)c1ccc([C@H](CO)NC(=O)c2cnc3c(c2)CN(C[C@H]2CC[C@H](C(F)(F)F)CC2)C3C(F)(F)F)cc1` (stereo partly shown) [Compound 23] the same measures were less than 100 nM and less than 0.1 µM.
For `CCS(=O)(=O)c1ccc([C@H](CO)NC(=O)c2cnc3c(c2)CN(C[C@H]2CC[C@H](C(F)(F)F)CC2)[C@H]3C)cc1` [Compound 26], the Ki in assay [1] is less than 100 nM. Also, the IC50 in assay [2] was 0.1 to 1 µM.
Consider `CCS(=O)(=O)c1ccc([C@H](CO)NC(=O)c2cnc3c(c2)CN(C[C@H]2CC[C@H](C(F)(F)F)CC2)[C@H]3CC2CCOCC2)cc1` [Compound 27], for which the Ki in assay [1] was less than 100 nM. The compound also displayed an IC50 in assay [2] of less than 0.1 µM.
In the case of `CCS(=O)(=O)c1ccc([C@H](CO)NC(=O)c2cnc3c(c2)CN(C[C@H]2CC[C@H](C(F)(F)F)CC2)[C@@H]3C)cc1` [Compound 28], in assay [1], the Ki was greater than 1000 nM.
Regarding `CCS(=O)(=O)c1ccc([C@H](CO)NC(=O)c2cnc3c(c2)CN(C[C@H]2CC[C@H](C(F)(F)F)CC2)[C@H]3C2CCOCC2)cc1` [Compound 31], the Ki in assay [1] was less than 100 nM. This compound returned a 50% inhibitory concentration (IC50) in assay [2] of less than 0.1 µM.
Consider `CCS(=O)(=O)c1ccc([C@H](CO)NC(=O)c2cnc3c(c2)CN(C)[C@H]3Cc2ccccc2)cc1` [Compound 35], for which, in assay [1], the Ki was in the range of 100 to 1000 nM.
With `CCS(=O)(=O)c1ccc([C@H](CO)NC(=O)c2cnc3c(c2)CN(C[C@H]2CC[C@H](C(F)(F)F)CC2)[C@H]3Cc2ccccc2)cc1` [Compound 37], the inhibitory constant (Ki) in assay [1] is less than 100 nM. For the same compound, the IC50 in assay [2] was less than 0.1 µM.
For the compound `CCS(=O)(=O)c1ccc([C@H](CO)NC(=O)c2cnc3c(c2)CN(C[C@H]2CC[C@H](C(F)(F)F)CC2)[C@@H]3Cc2ccccc2)cc1` [Compound 40], the Ki in assay [1] is 100 to 1000 nM.
With `CCO[C@H]1CC[C@H](CN2Cc3cc(C(=O)N[C@@H](CO)c4ccc(S(=O)(=O)CC)cc4)cnc3[C@@H]2C(C)C)CC1` [Compound 43], in assay [1], the Ki is less than 100 nM. In addition, the half-inhibitory concentration (IC50) in assay [2] was less than 0.1 µM.
